From US6627441B1, “Increasing levels of growth regulator and/or water stress during embryo development” (priority 1998, dated 2003)

Key:
Type in all cases: cell-based
[1] = test system: white spruce somatic embryos; experiment: Varying ABA and PEG during development, precocious germination observations (Example 2); conditions: 6 weeks
Method: In order to test the above hypothesis, various concentrations of PEG and ABA were tested and modified during development of white spruce somatic embryos.
The starting treatments were prepared as outlined in Table 2.
The embryos were transferred to fresh medium every two weeks over a six week period. Observations were then recorded. The treatments consisted of the following ABA concentrations and media water potentials, with three replicates per treatment.

[2] = test system: white spruce somatic embryos; experiment: Liquid maturation pretreatments with ABA and PEG, number of mature embryos (Example 7)
Method: Experiments were established to determine whether increasing ABA and water stress can be applied early in maturation. Somatic embryos in liquid maintenance suspension culture were transferred to liquid culture medium containing 1/20 of the strength of hormones in the preculture medium for 7 days. Seven treatments were prepared using these cultures as outlined below.
Starting water potential was 112 mmol/kg, and all preculture media contained 1/20 strength 2,4-D and BA that were present in the proliferation medium. Following these treatments, a 20% suspension was prepared and the embryos were plated onto solidified maturation medium containing PEG adjusted to 290 mmol/kg with PEG and 20 μM ABA.
Experiments were repeated at least three times and three replicates were prepared per treatment. Cultures were transferred to fresh medium every two weeks. Alternatively, to determine if PEG/ABA liquid maturation treatments modified the optimal starting water potential, the embryos were plated from the nine treatments to medium containing ABA at 20 μM and PEG at 290 or 380 mmol/kg. Additionally, to determine if PEG/ABA liquid maturation treatments modified the optimal starting ABA concentration, the embryos were plated from the nine treatments to medium containing PEG at 337 mmol/kg and ABA at 20 or 40 μM. Cultures were transferred to fresh medium every two weeks. After six weeks, the number of embryos developing per 0.75 mL starting inoculum was recorded. It can be seen from FIG. 3 that all treatments in which PEG and ABA were added gave an improvement over the control. Previous experiments had shown that the control ( 1/20 of the hormones present in the proliferation medium) yielded almost four times the number of mature embryos compared to no pretreatment (i e., full hormone treatment), and almost three times the number of mature embryos compared to culture in hormone-free preculture medium (i e., means of 154, 41, and 58 mature embryos per replicate, respectively). […] The best treatments were those that contained additions of both PEG and ABA. […]

[3] = test system: white spruce somatic embryos; experiment: Reducing or increasing ABA with increasing water stress and desiccation, plant growth (Example 9); conditions: for Shoot development / Survival / Total plant length: 8 weeks growth
Method: Experiments were conducted to determine the effects of decreasing ABA levels in combination with increasing water stress on development, desiccation tolerance and germination of white spruce. Embryos from preculture (Example 7, treatment 8) were plated onto the transfer schedule outlined below.
Cotyledonary embryos were visible after the second week of culture, and cotyledons were prominent from the fourth week during which time the somatic embryos were in contact with 40 to 20 μM of ABA. […] For germination, the best embryos which were not showing precocious germination were selected. Somatic embryos were either germinated directly or were desiccated then germinated as described above. Controls were prepared using embryos developed using pretreatment 8, in Example 7, followed by culture on solidified medium treatment 6 of Example 4.

CC1=CC(=O)CC(C)(C)[C@@]1(O)/C=C/C(C)=C\C(=O)O [ABA, abscisic acid] was tested, and the “observations (greening, precocious germination)” value (from here on “observations”) ([1]; Expt A (start PEG 260 mmol/kg, ABA 16 μM), 1. Control, fresh medium of the same composition) was “green, cotyledon elongation”, the “observations” value ([1]; Expt A (start PEG 260 mmol/kg, ABA 16 μM), 2. Raise ABA (24, 32 μM)) was “slight or no greening” and the “observations” value ([1]; Expt A (start PEG 260 mmol/kg, ABA 16 μM), 5. Raise PEG (290, 320 mmol/kg), raise ABA (24, 32 μM)) was “slight or no greening”. For the same compound, the “observations” value ([1]; Expt B (start PEG 260 mmol/kg, ABA 24 μM), 1. Control, fresh medium of the same composition) was “greening”, the “observations” value ([1]; Expt B (start PEG 260 mmol/kg, ABA 24 μM), 2. Raise ABA (32, 32 μM)) was “no greening” and the “observations” value ([1]; Expt B (start PEG 260 mmol/kg, ABA 24 μM), 5. Raise PEG (290, 320 mmol/kg), raise ABA (32, 32 μM)) was “slight or no greening”. The “observations” value ([1]; Expt C (start PEG 290 mmol/kg, ABA 8 μM), 2. Raise ABA (16, 24 μM)) was “greening”, the “observations” value ([1]; Expt C (start PEG 290 mmol/kg, ABA 8 μM), Raise PEG (12, 14%), raise ABA (16, 24 μM)) was “none or slight greening” and the “observations” value ([1]; Expt D (start PEG 290 mmol/kg, ABA 16 μM), 2. Raise ABA (24, 32 μM)) was “no greening”. For the same compound, the “observations” value ([1]; Expt D (start PEG 290 mmol/kg, ABA 16 μM), 4. Raise PEG (290, 320), lower ABA (8, 8 μM)) was “greening”, the “observations” value ([1]; Expt D (start PEG 290 mmol/kg, ABA 16 μM), 5. Raise PEG (290, 320), raise ABA (24, 32 μM)) was “no greening” and the “best starting concentration of ABA in solidified maturation medium” value ([2]; optimal liquid treatments, PEG 337 mmol/kg, 20 or 40 μM tested, FIG. 4) was 20 µM. For the same compound, the “embryos per milliliter of starting inoculum” value ([2]; treatment 8: PEG and ABA added in steps at days 3 and 5) was “over 280 embryos per milliliter”, the “average number of mature embryos” value ([2]; treatment 8: PEG and ABA added in steps at days 3 and 5 of liquid culture, per 0.75 mL inoculum) was “about 224 mature embryos per replicate” and the “appearance of developed embryos, precocious germination” value ([3]; ABA decreasing 40, 20, 10, 0 μM with PEG 290, 400, 540, 540 mmol/kg over 6 weeks) was “slight swelling and slight greening”. The Shoot development ([3]; Increasing ABA, desiccated) was 93%, the Survival ([3]; Increasing ABA, desiccated) was 100% and the Total plant length ([3]; Increasing ABA, desiccated) was 34.5 mm. The Shoot development ([3]; Reducing ABA, desiccation) was 0%, the Survival ([3]; Reducing ABA, desiccation) was 80.5% and the Total plant length ([3]; Reducing ABA, desiccation) was 8.14 mm. It also gave a Shoot development ([3]; Reducing ABA, no desiccation) of 0%, a Survival ([3]; Reducing ABA, no desiccation) of 100% and a Total plant length ([3]; Reducing ABA, no desiccation) of 25.8 mm. For the same compound, the new needle development ([3]; Reducing ABA, non-desiccated embryos, after 12 weeks of growth) was “none had shown new needle development”.
